Measurements published in ChEMBL document CHEMBL5036347, “Design of the naphthyl-diarylpyrimidines as potent non-nucleoside reverse transcriptase inhibitors (NNRTIs) via structure-based extension into the entrance channel” (Eur J Med Chem, 2021).
Converted amounts (≈) assume the structure as drawn.

Tests used:
[1] = test system: Human immunodeficiency virus 1; experiment: Anti-HIV activity against HIV-1 IIIB infected in human MT4 cells assessed as reduction in virus-induced cytopathic effect incubated for 5 days by MTT assay; format: functional, organism-based; details: Human immunodeficiency virus 1, IIIB, MT4, 120 h
[2] = test system: Human immunodeficiency virus 2; experiment: Anti-HIV activity against HIV2 ROD infected in human MT4 cells assessed as reduction in virus-induced cytopathic effect incubated for 5 days by MTT assay; format: functional, organism-based; details: Human immunodeficiency virus 2, ROD, MT4, 120 h
[3] = (§1) Cytotoxicity against human MT4 cells assessed as reduction in cell viability incubated for 5 days by MTT assay; format: cell-based; details: human, MT4 cells; time 5 day
[4] = test system: Human immunodeficiency virus 1; experiment: Antiviral activity against HIV1 harboring reverse transcriptase L100I mutant infected in human MT4 cells assessed as protection against virus-induced cytopathic effect incubated for 5 days by MTT assay; format: functional, organism-based; details: Human immunodeficiency virus 1, MT4, 120 h
[5] = test system: Human immunodeficiency virus 1; experiment: Antiviral activity against HIV1 harboring reverse transcriptase K103N mutant infected in human MT4 cells assessed as protection against virus-induced cytopathic effect incubated for 5 days by MTT assay; format: functional, organism-based; details: Human immunodeficiency virus 1, MT4, 120 h
[6] = test system: Human immunodeficiency virus 1; experiment: Antiviral activity against HIV1 harboring reverse transcriptase Y181C mutant infected in human MT4 cells assessed as protection against virus-induced cytopathic effect incubated for 5 days by MTT assay; format: functional, organism-based; details: Human immunodeficiency virus 1, MT4, 120 h
[7] = test system: Human immunodeficiency virus 1; experiment: Antiviral activity against HIV1 harboring reverse transcriptase Y188L mutant infected in human MT4 cells assessed as protection against virus-induced cytopathic effect incubated for 5 days by MTT assay; format: functional, organism-based; details: Human immunodeficiency virus 1, MT4, 120 h
[8] = test system: Human immunodeficiency virus 1; experiment: Antiviral activity against HIV1 harboring reverse transcriptase E138K mutant infected in human MT4 cells assessed as protection against virus-induced cytopathic effect incubated for 5 days by MTT assay; format: functional, organism-based; details: Human immunodeficiency virus 1, MT4, 120 h
[9] = test system: Human immunodeficiency virus 1; experiment: Antiviral activity against HIV1 harboring reverse transcriptase F227L/V106A mutant infected in human MT4 cells assessed as protection against virus-induced cytopathic effect incubated for 5 days by MTT assay; format: functional, organism-based; details: Human immunodeficiency virus 1, MT4, 120 h
[10] = Resistance fold, ratio of EC50 for HIV1 harboring reverse transcriptase Y181C mutant […] to EC50 for wild type HIV1 […]; format: functional
[11] = Resistance fold, ratio of EC50 for HIV1 harboring reverse transcriptase L100I mutant […] to EC50 for wild type HIV1 […]; format: functional
[12] = Resistance fold, ratio of EC50 for HIV1 harboring reverse transcriptase K103N mutant […] to EC50 for wild type HIV1 […]; format: functional
[13] = test system: Human immunodeficiency virus 1; experiment: Antiviral activity against HIV1 harboring reverse transcriptase K103N/Y181C double mutant infected in human MT4 cells assessed as protection against virus-induced cytopathic effect incubated for 5 days by MTT assay; format: functional, organism-based; details: Human immunodeficiency virus 1, MT4, 120 h
[14] = Selectivity index, ratio of CC50 for cytotoxicity against human MT4 cells to EC50 of Anti-HIV activity against HIV-1 IIIB infected in human MT4; format: toxicity, cell-based; details: read-out: Selectivity Index
[15] = target: Human immunodeficiency virus type 1 reverse transcriptase (Human immunodeficiency virus 1, UniProt Q72547, K103N/Y181C); experiment: Inhibition of HIV1 reverse transcriptase K103N/Y181C double mutant using oligo(dT)16 as primer measured after 40 mins by picogreen-dye based spectrofluorimetric analysis
[16] = Resistance fold, ratio of EC50 for HIV1 harboring reverse transcriptase Y188L mutant […] to EC50 for wild type HIV1 […]; format: functional
[17] = Resistance fold, ratio of EC50 for HIV1 harboring reverse transcriptase E138K mutant […] to EC50 for wild type HIV1 […]; format: functional
[18] = Resistance fold, ratio of EC50 for HIV1 harboring reverse transcriptase F227L/V106A double mutant […] to EC50 for wild type HIV1 […]; format: functional
[19] = Resistance fold, ratio of EC50 for HIV1 harboring reverse transcriptase K103N/Y181C double mutant […] to EC50 for wild type HIV1 […]; format: functional
[20] = target: Human immunodeficiency virus type 1 reverse transcriptase (Human immunodeficiency virus 1, UniProt Q72547); experiment: Inhibition of wild type HIV1 reverse transcriptase using oligo(dT)16 as primer measured after 40 mins by picogreen-dye based spectrofluorimetric analysis
[21] = target: Human immunodeficiency virus type 1 reverse transcriptase (Human immunodeficiency virus 1, UniProt Q72547, L100I); experiment: Inhibition of HIV1 reverse transcriptase L100I mutant using oligo(dT)16 as primer measured after 40 mins by picogreen-dye based spectrofluorimetric analysis
[22] = target: Human immunodeficiency virus type 1 reverse transcriptase (Human immunodeficiency virus 1, UniProt Q72547, K103N); experiment: Inhibition of HIV1 reverse transcriptase K103N mutant using oligo(dT)16 as primer measured after 40 mins by picogreen-dye based spectrofluorimetric analysis
[23] = target: Human immunodeficiency virus type 1 reverse transcriptase (Human immunodeficiency virus 1, UniProt Q72547, Y181C); experiment: Inhibition of HIV1 reverse transcriptase Y181C mutant using oligo(dT)16 as primer measured after 40 mins by picogreen-dye based spectrofluorimetric analysis
[24] = target: Human immunodeficiency virus type 1 reverse transcriptase (Human immunodeficiency virus 1, UniProt Q72547, Y188L); experiment: Inhibition of HIV1 reverse transcriptase Y188L mutant using oligo(dT)16 as primer measured after 40 mins by picogreen-dye based spectrofluorimetric analysis
[25] = target: Human immunodeficiency virus type 1 reverse transcriptase (Human immunodeficiency virus 1, UniProt Q72547, E138K); experiment: Inhibition of HIV1 reverse transcriptase E138K mutant using oligo(dT)16 as primer measured after 40 mins by picogreen-dye based spectrofluorimetric analysis
[26] = target: Human immunodeficiency virus type 1 reverse transcriptase (Human immunodeficiency virus 1, UniProt Q72547, F227L/V106A); experiment: Inhibition of HIV1 reverse transcriptase F227L/V106A double mutant using oligo(dT)16 as primer measured after 40 mins by picogreen-dye based spectrofluorimetric analysis
[27] = Water solubility of compound at pH 2 at 0.1 to 10 mg by HPLC-UV analysis; format: physicochemical; details: dose 0.1-10 mg
[28] = Water solubility of compound at pH 7 at 0.1 to 10 mg by HPLC-UV analysis; format: physicochemical; details: dose 0.1-10 mg
[29] = Water solubility of compound at pH 7.4 at 0.1 to 10 mg by HPLC-UV analysis; format: physicochemical; details: dose 0.1-10 mg
MT4 = experiment: as §1; format: cell-based; details: Homo sapiens, MT4, 120 h

Row | Structure (SMILES) | EC50 [1] | EC50 [2] | CC50 at 120 h [3] | EC50 [4] | EC50 [5] | EC50 [6] | EC50 [7] | EC50 [8] | EC50 [9] | Ratio EC50 [10] | Ratio EC50 [11] | Ratio EC50 [12] | EC50 [13] | selectivity ratio [14] | IC50 [15] | Ratio EC50 [16] | Ratio EC50 [17] | Ratio EC50 [18] | Ratio EC50 [19] | IC50 [20] | also measured
1 | COc1cc2cc(C#N)ccc2c(OC)c1Oc1cc(N2CCC(O)C2)nc(Nc2ccc(C#N)cc2)n1 (stereo unspecified) | 0.011 µM | 9.12 µM | > 125 µM | 0.12 µM | 0.019 µM | 0.048 µM | 0.4 µM | 0.045 µM | 1.33 µM | 4 | 11 | 2 | 0.81 µM | 22800 | 0.45 µM | 38 | 4 | 124 | 76 | 0.1 µM | IC50 [21]: 0.49 µM; IC50 [22]: 0.24 µM; IC50 [23]: 0.18 µM; IC50 [24]: 1.06 µM; IC50 [25]: 0.15 µM; IC50 [26]: 0.88 µM; solubility [27]: 1 µg/mL (≈ 1.97 µM); solubility [28]: < 1 µg/mL; solubility [29]: 2 µg/mL (≈ 3.93 µM)
2 | COc1cc2cc(C#N)ccc2c(OC)c1Oc1cc(N)nc(Nc2ccc(C#N)cc2)n1 | 0.0054 µM | 7.28 µM | 19 µM | 0.038 µM | 0.0053 µM | 0.016 µM | 0.176 µM | 0.014 µM | 0.33 µM | 3 | 7 | 1 | 0.03 µM | 3500 | 0.06 µM | 33 | 3 | 61 | 6 | 0.02 µM | IC50 [21]: 0.07 µM; IC50 [22]: 0.04 µM; IC50 [23]: 0.04 µM; IC50 [24]: 0.15 µM; IC50 [25]: 0.02 µM; IC50 [26]: 0.12 µM; solubility [27]: < 1 µg/mL; solubility [28]: < 1 µg/mL; solubility [29]: 1 µg/mL (≈ 2.28 µM)
3 | CCC(C)CNc1cc(Oc2c(OC)cc3cc(C#N)ccc3c2OC)nc(Nc2ccc(C#N)cc2)n1 (stereo unspecified) | 0.069 µM | > 1000 µM | – | 2.48 µM | 0.06 µM | 0.68 µM | 6.14 µM | 0.28 µM | > 1000 µM | 10 | 36 | 1 | 14.9 µM | > 3550 | – | 89 | 4 | >14450 | 216 | 0.27 µM | IC50 (MT4): > 125 µM
4 | CCNc1cc(Oc2c(OC)cc3cc(C#N)ccc3c2OC)nc(Nc2ccc(C#N)cc2)n1 | 0.0091 µM | > 1000 µM | > 125 µM | 0.13 µM | 0.0088 µM | 0.061 µM | 0.58 µM | 0.016 µM | 4.21 µM | 7 | 14 | 1 | 0.42 µM | > 30500 | 0.43 µM | 64 | 2 | 463 | 46 | 0.06 µM | IC50 [21]: 1.31 µM; IC50 [22]: 0.12 µM; IC50 [23]: 0.16 µM; IC50 [24]: 2.32 µM; IC50 [25]: 0.09 µM; IC50 [26]: 1.16 µM; solubility [27]: 1 µg/mL (≈ 2.14 µM); solubility [28]: < 1 µg/mL; solubility [29]: 9 µg/mL (≈ 19.3 µM)
